Measured values: patent US9499550B2 (BRISTOL-MYERS SQUIBB COMPANY, priority 2012, dated 2016)
pEC50: −log10 of the molar value. Where two headings read alike, the source gives them in different places.

Experiments:
[1] = system: HCV genotype 1a (H77 strain) replicon in HUH-7 cells; test: HCV replicon luciferase reporter assay, genotype 1a; assay type: cell-based; settings: Hepatitis C virus, Huh-7, 72 h, 3 days incubation
In short: (§1)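 Replicon inhibition for both genotypes was measured as Renilla luciferase signal (EnduRen, 7.5 μM final, 2 h) after 3-day, 37° C exposure of replicon-bearing HUH-7 cells in 4% FCS DMEM, 0.5% DMSO. The 1b construct carries S1179I; the 1a H77 construct carries P1496L and S2204I. Twenty-point, 3-fold dilutions were fitted four-parametrically for EC50, and CC50 was taken from multiplexed Cell Titer-Blue.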

[2] = system: HCV genotype 1b (Con1) replicon in HUH-7 cells; test: HCV replicon luciferase reporter assay, genotype 1b; assay type: cell-based; settings: Hepatitis C virus, Huh-7, 72 h, 3 days incubation
In short: as §1

[3] = HCV genotype 1a replicon luciferase assay, range class, read-out: LE_1a (EC50, range)
[4] = HCV genotype 1b replicon luciferase assay, range class, read-out: LE_1b (EC50, range)
[5] = HCV genotype 1a replicon luciferase, read-out: LE_1a (EC50, range)
[6] = HCV genotype 1b replicon luciferase, read-out: LE_1b (EC50, range)
[7] = GETYPE1A, HCV genotype 1a replicon luciferase, read-out: LE_1a (EC50, range)
[8] = GETYPE1B, HCV genotype 1b replicon luciferase, read-out: LE_1b (EC50, range)

Compound | pEC50 [1, 3] | pEC50 [2, 4] | pEC50 [1, 5] | pEC50 [2, 6] | also measured
[2H]C([2H])([2H])C(OC(=O)N[C@@H]1C(=O)N2C[C@H](Oc3nc(N4CCOCC4)cc4cc(OC)ccc34)C[C@H]2C(=O)N[C@]2(C(=O)NS(=O)(=O)C3CC3)C[C@H]2/C=C\CC[C@H](C)C[C@H]1C)(C([2H])([2H])[2H])C(F)(F)F [Compound 3100, 1,1,1,3,3,3-hexadeutero-2-(trifluoromethyl)propan-2-yl((2R,6S,7R,9S,13aS,14aR,16aS,Z)-14a-((cyclopropylsulfonyl)carbamoyl)-2-((6-methoxy-3-morpholinoisoquinolin-1-yl)oxy)-7,9-dimethyl-5,16-dioxo-1,2,3,5,6,7,8,9,10,11,13a,14,14a,15,16,16a-hexadecahydrocyclopropa[e]pyrrolo[1,2-a][1,4]diazacyclopentadecin-6-yl)carbamate] | > 8.26 | > 8.26 |  |  | 
COc1cc2c(OC)cnc(O[C@@H]3C[C@H]4C(=O)N[C@]5(C(=O)NS(=O)(=O)C6(CF)CC6)C[C@H]5/C=C\CC[C@@H](C)C[C@@H](C)[C@H](NC(=O)C5(C(F)(F)F)CC5)C(=O)N4C3)c2cc1F [Compound 4119, (2R,6S,7R,9R,13aS,14aR,16aS,Z)-2-(7-fluoro-4,6-dimethoxyisoquinolin-1-yloxy)-N-(1-(fluoromethyl)cyclopropylsulfonyl)-7,9-dimethyl-5,16-dioxo-6-(1-(trifluoromethyl)cyclopropanecarboxamido)-1,2,3,5,6,7,8,9,10,11,13a,14,14a,15,16,16a-hexadecahydrocyclopropa[e]pyrrolo[1,2-a][1,4]diazacyclopentadecine-14a-carboxamide] |  |  | > 8.26 | > 8.26 | 
CCOc1cnc(O[C@@H]2C[C@H]3C(=O)N[C@]4(C(=O)NS(=O)(=O)C5CC5)C[C@H]4/C=C\CC[C@@H](C)C[C@@H](CC)[C@H](NC(=O)OC(C)(C)C(F)(F)F)C(=O)N3C2)c2ccccc12 [Compound 4185] |  |  |  |  | pEC50 [1, 7]: > 8.26; pEC50 [2, 8]: > 8.26
COc1ccc2c(O[C@@H]3C[C@H]4C(=O)N[C@]5(C(=O)NS(=O)(=O)C6CC6)C[C@H]5/C=C\CC[C@@H](C)C[C@@H](C)[C@H](NC(=O)OC(C)(C)C)C(=O)N4C3)nc(-c3ccc(OC)c(F)c3)cc2c1 [Compound 3050, tert-butyl ((2R,6S,7R,9R,13aS,14aR,16aS,Z)-14a-((cyclopropylsulfonyl)carbamoyl)-2-((3-(3-fluoro-4-methoxyphenyl)-6-methoxyisoquinolin-1-yl)oxy)-7,9-dimethyl-5,16-dioxo-1,2,3,5,6,7,8,9,10,11,13a,14,14a,15,16,16a-hexadecahydrocyclopropa[e]pyrrolo[1,2-a][1,4]diazacyclopentadecin-6-yl)carbamate] | > 8.26 | > 8.26 |  |  | 
COc1cnc(O[C@@H]2C[C@H]3C(=O)N[C@]4(C(=O)NS(=O)(=O)C5(F)CC5)C[C@H]4/C=C\CC[C@@H](C)C[C@@H](C)[C@H](NC(=O)OC(C)(C)C(F)(F)F)C(=O)N3C2)c2ccccc12 [Compound 14, 1,1,1-trifluoro-2-methylpropan-2-yl((2R,6S,7R,9R,13aS,14aR,16aS,Z)-14a-(((1-fluorocyclopropyl)sulfonyl)carbamoyl)-2-((4-methoxyisoquinolin-1-yl)oxy)-7,9-dimethyl-5,16-dioxo-1,2,3,5,6,7,8,9,10,11,13a,14,14a,15,16,16a-hexadecahydrocyclopropa[e]pyrrolo[1,2-a][1,4]diazacyclopentadecin-6-yl)carbamate] | > 8.26 | > 8.26 |  |  | 
CCOc1ccc2c(O[C@@H]3C[C@H]4C(=O)N[C@]5(C(=O)NS(=O)(=O)C6CC6)C[C@H]5/C=C\CC[C@@H](C)C[C@@H](CC)[C@H](NC(=O)OC(C)(C)C(C)(F)F)C(=O)N4C3)nccc2c1 [Compound 5359] |  |  | 8.30 to 9.00 | 8.30 to 9.00 | 
C[C@@H]1CC/C=C\[C@@H]2C[C@@]2(C(=O)NS(=O)(=O)C2(C)CC2)NC(=O)[C@@H]2C[C@@H](Oc3nc(OCC(F)F)cc4c(Cl)cccc34)CN2C(=O)[C@@H](NC(=O)O[C@H](C)C(F)(F)F)[C@H](C)C1 [Compound 1108, (R)-1,1,1-trifluoropropan-2-yl ((2R,6S,7R,9R,13aS,14aR,16aS,Z)-2-((5-chloro-3-(2,2-difluoroethoxyl)isoquinolin-1-yl)oxy)-7,9-dimethyl-14a-(((1-methylcyclopropyl)sulfonyl)carbamoyl)-5,16-dioxo-1,2,3,5,6,7,8,9,10,11,13a,14,14a,15,16,16a-hexadecahydrocyclopropa[e]pyrrolo[1,2-a][1,4]diazacyclopentadecin-6-yl)carbamate] | > 8.26 | > 8.26 |  |  | 
COc1cccc2c(O[C@@H]3C[C@H]4C(=O)N[C@]5(C(=O)NS(=O)(=O)C6(C)CC6)C[C@H]5/C=C\CC[C@H](C)C[C@@H](C)[C@H](NC(=O)OC(C)(C)C)C(=O)N4C3)nccc12 [Compound 3035, tert-butyl ((2R,6S,7R,9S,13aS,14aR,16aS,Z)-2-((5-methoxyisoquinolin-1-yl)oxy)-7,9-dimethyl-14a-(((1-methylcyclopropyl)sulfonyl)carbamoyl)-5,16-dioxo-1,2,3,5,6,7,8,9,10,11,13a,14,14a,15,16,16a-hexadecahydrocyclopropa[e]pyrrolo[1,2-a][1,4]diazacyclopentadecin-6-yl)carbamate] | 6.99 to 8.32 | > 8.26 |  |  | 
C[C@@H]1CC/C=C\[C@@H]2C[C@@]2(C(=O)NS(=O)(=O)C2(CF)CC2)NC(=O)[C@@H]2C[C@@H](Oc3ncc(N4CCOCC4)c4ccccc34)CN2C(=O)[C@@H](NC(=O)OC(C)(C)C(C)(F)F)[C@H](C)C1 [Compound 5451, 3,3-difluoro-2-methylbutan-2-yl((2R,6S,7R,9R,13aS,14aR,16aS,Z)-14a-(((1-(fluoromethyl)cyclopropyl)sulfonyl)carbamoyl)-7,9-dimethyl-2-((4-morpholinoisoquinolin-1-yl)oxy)-5,16-dioxo-1,2,3,5,6,7,8,9,10,11,13a,14,14a,15,16,16a-hexadecahydrocyclopropa[e]pyrrolo[1,2-a][1,4]diazacyclopentadecin-6-yl)carbamate] |  |  | 8.30 to 9.00 | 8.30 to 9.00 | 
C[C@@H]1CC/C=C\[C@@H]2C[C@@]2(C(=O)NS(=O)(=O)C2CC2)NC(=O)[C@@H]2C[C@@H](Oc3nccc4c5c(ccc34)N(C)CCO5)CN2C(=O)[C@@H](NC(=O)OC(C)(C)C)[C@H](C)C1 [Compound 5276, tert-butyl ((2R,6S,7R,9R,13aS,14aR,16aS,Z)-14a-((cyclopropylsulfonyl)carbamoyl)-7,9-dimethyl-2-((4-methyl-3,4-dihydro-2H-[1,4]oxazino[2,3-f]isoquinolin-7-yl)oxy)-5,16-dioxo-1,2,3,5,6,7,8,9,10,11,13a,14,14a,15,16,16a-hexadecahydrocyclopropa[e]pyrrolo[1,2-a][1,4]diazacyclopentadecin-6-yl)carbamate] |  |  | > 8.26 | > 8.26 | 
CC[C@@H]1C[C@H](C)CC/C=C\[C@@H]2C[C@@]2(C(=O)NS(=O)(=O)C2CC2)NC(=O)[C@@H]2C[C@@H](Oc3ncc(OC)c4ccc(F)cc34)CN2C(=O)[C@H]1NC(=O)OC(C)(C)C(F)(F)F [Compound 4002, 1,1,1-trifluoro-2-methylpropan-2-yl (2R,6S,7R,9R,13aS,14aR,16aS,Z)-14a-(cyclopropylsulfonylcarbamoyl)-7-ethyl-2-(7-fluoro-4-methoxyisoquinolin-1-yloxy)-9-methyl-5,16-dioxo-1,2,3,5,6,7,8,9,10,11,13a,14,14a,15,16,16a-hexadecahydrocyclopropa[e]pyrrolo[1,2-a][1,4]diazacyclopentadecin-6-ylcarbamate] |  |  | > 8.26 | > 8.26 | 
CCn1nc(O[C@@H]2C[C@H]3C(=O)N[C@]4(C(=O)NS(=O)(=O)C5(C)CC5)C[C@H]4/C=C\CC[C@H](C)C[C@@H](C)[C@H](NC(=O)OC(C)(C)C(F)(F)F)C(=O)N3C2)c2ccccc2c1=O [Compound 5052, 1,1,1-trifluoro-2-methylpropan-2-yl((2R,6S,7R,9S,13aS,14aR,16aS,Z)-2-((3-ethyl-4-oxo-3,4-dihydrophthalazin-1-yl)oxy)-7,9-dimethyl-14a-(((1-methylcyclopropyl)sulfonyl)carbamoyl)-5,16-dioxo-1,2,3,5,6,7,8,9,10,11,13a,14,14a,15,16,16a-hexadecahydrocyclopropa[e]pyrrolo[1,2-a][1,4]diazacyclopentadecin-6-yl)carbamate] |  |  | < 7.06 | 6.99 to 8.32 | pEC50 ([1]; HCV genotype 1a replicon luciferase, read-out: LE_1a (EC50)): 6.48; pEC50 ([2]; HCV genotype 1b replicon luciferase, read-out: LE_1b (EC50)): 7.12
CCOc1cnc(O[C@@H]2C[C@H]3C(=O)N[C@]4(C(=O)NS(=O)(=O)C5(CF)CC5)C[C@H]4/C=C\CC[C@@H](C)C[C@@H](C)[C@H](NC(=O)OC(C)(C)C(F)(F)F)C(=O)N3C2)c2ccccc12 [Compound 4149] |  |  |  |  | pEC50 [1, 7]: > 8.26; pEC50 [2, 8]: > 8.26
